Where two headings read alike, the source gives them in different places.
Assays:
[1] = tested on: Key Broadleaf Weed and Crop Species; test: Post-emergent Test II herbicidal activity (Table 5); format: in vivo; settings: post-emergence, 336 h, post-emergent, 14 days after application; for pest or weed control at 70 g/ha: 70 g ai/ha; for pest or weed control at 140 g/ha: 140 g ai/ha
Method in brief: (§1)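 Injury was rated visually 14 d after treatment on a 0–100% scale against untreated controls. Test compounds, formulated with crop oil concentrate and surfactant and serially diluted down to 1/16× of the top rate, were applied by track sprayer at 187 L/ha onto first- to second-true-leaf seedlings.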

[2] = tested on: Key Grass and Sedge Weeds as well as Grass Crops; test: Post-emergent Test II herbicidal activity (Table 6); format: in vivo; settings: post-emergence, 336 h; for pest or weed control at 70 g/ha: application rate 70 g ai/ha; for pest or weed control at 140 g/ha: application rate 140 g ai/ha
Method in brief: as §1

[3] = ABUTH: velvetleaf (Abutilon theophrasti), read-out: Visual Growth Reduction (%) 14 Days After Application ABUTH
[4] = AMARE: redroot pigweed (Amaranthus retroflexus), read-out: Visual Growth Reduction (%) 14 Days After Application AMARE
[5] = BRSNN: oilseed-rape, canola (Brassica napus), read-out: Visual Growth Reduction (%) 14 Days After Application BRSNN
[6] = CHEAL: lambsquarters (Chenopodium album), read-out: Visual Growth Reduction (%) 14 Days After Application CHEAL
[7] = EPHHL: wild poinsettia (Euphorbia heterophylla), read-out: Visual Growth Reduction (%) 14 Days After Application EPHHL
[8] = HELAN: sunflower (Helianthus annuus), read-out: Visual Growth Reduction (%) 14 Days After Application HELAN
[9] = VIOTR: wild pansy (Viola tricolor), read-out: Visual Growth Reduction (%) 14 Days After Application VIOTR
[10] = CYPES: yellow nutsedge (Cyperus esculentus), read-out: Visual Growth Reduction (%) 14 Days After Application, CYPES
[11] = DIGSA: crabgrass (Digitaria sanguinalis), read-out: Visual Growth Reduction (%) 14 Days After Application, DIGSA
[12] = ECHCG: barnyardgrass (Echinochloa crus-galli), read-out: Visual Growth Reduction (%) 14 Days After Application, ECHCG
[13] = ORYSA: rice (Oryza sativa), read-out: Visual Growth Reduction (%) 14 Days After Application, ORYSA
[14] = SETFA: giant foxtail (Setaria faberi), read-out: Visual Growth Reduction (%) 14 Days After Application, SETFA
[15] = SORVU: grain sorghum (Sorghum vulgare), read-out: Visual Growth Reduction (%) 14 Days After Application, SORVU
[16] = ZEAMX: maize, corn (Zea mays), read-out: Visual Growth Reduction (%) 14 Days After Application, ZEAMX

C=Cc1c(N)nc(-c2ccc(C#N)cc2F)nc1C(=O)OC [Compound 98, Methyl 6-amino-2-(4-cyano-2-fluorophenyl)-5-vinylpyrimidine-4-carboxylate]
0 to 29%: pest or weed control at 70 g/ha [1, 3] | pest or weed control at 140 g/ha [1, 3] | pest or weed control at 70 g/ha [1, 4] | pest or weed control at 140 g/ha [1, 4] | pest or weed control at 70 g/ha [1, 5] | pest or weed control at 140 g/ha [1, 5] | pest or weed control at 70 g/ha [1, 6] | pest or weed control at 140 g/ha [1, 6] | pest or weed control at 70 g/ha [1, 7] | pest or weed control at 140 g/ha [1, 7] | pest or weed control at 70 g/ha [1, 8] | pest or weed control at 140 g/ha [1, 8] | pest or weed control at 70 g/ha [1, 9] | pest or weed control at 140 g/ha [1, 9] | pest or weed control at 70 g/ha ([2]; Triticum aestivum, TRZSS (wheat), read-out: Visual Growth Reduction (%) 14 Days After Application, TRZSS) | pest or weed control at 70 g/ha [2, 10] | pest or weed control at 140 g/ha [2, 10] | pest or weed control at 70 g/ha [2, 11] | pest or weed control at 140 g/ha [2, 11] | pest or weed control at 70 g/ha [2, 12] | pest or weed control at 140 g/ha [2, 12] | pest or weed control at 70 g/ha [2, 13] | pest or weed control at 140 g/ha [2, 13] | pest or weed control at 70 g/ha [2, 14] | pest or weed control at 140 g/ha [2, 14] | pest or weed control at 70 g/ha [2, 15] | pest or weed control at 140 g/ha [2, 15] | pest or weed control at 140 g/ha ([2]; TRZSS (wheat, Triticum aestivum), read-out: Visual Growth Reduction (%) 14 Days After Application, TRZSS) | pest or weed control at 70 g/ha [2, 16] | pest or weed control at 140 g/ha [2, 16]
